Data taken from patent US12077503B2, “Substituted cyclic amides and their use as herbicides” (FMC CORPORATION, priority 2015, dated 2024).

Tests used:
Format in all cases: in vivo
[1] = test system: ducksalad (Heteranthera limosa); assay: Test B flooded paddy test; details: Heteranthera limosa, 250 g ai/ha, Flood; 0 to 100 scale where 0 is no effect and 100 is complete control; read-out: Ducksalad plant response rating
How it was run: (§1)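 Compound goes directly into floodwater once pots are flooded 3 cm above soil, targeting plants at two leaves; the water depth is then held for the test duration. Plants sit 13–15 d in a greenhouse and are rated visually, 100 denoting complete control.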

[2] = test system: rice (Oryra sativa); assay: Test B flooded paddy test; details: Oryza sativa, 250 g ai/ha, Flood; 0 to 100 scale where 0 is no effect and 100 is complete control; read-out: Rice plant response rating
How it was run: as §1

[3] = test system: sedge, umbrella (small-flower umbrella sedge, Cyperus difformis); assay: Test B flooded paddy test; details: Cyperus difformis, 250 g ai/ha, Flood; 0 to 100 scale where 0 is no effect and 100 is complete control; read-out: Sedge, Umbrella plant response rating
How it was run: as §1

[4] = test system: barnyardgrass (Echinochloa crus-galli); assay: Test B flooded paddy test; details: Echinochloa crus-galli, 250 g ai/ha, Flood; 0 to 100 scale where 0 is no effect and 100 is complete control; read-out: Barnyardgrass plant response rating
How it was run: as §1

[5] = test system: pigweed (Amaranthus retroflexus); assay: Test A postemergence; details: Amaranthus retroflexus, post-emergence, 240 h, Postemergence
How it was run: (§2)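 Ratings of 0 (no effect) to 100 (complete control) come from visual comparison with untreated controls roughly 10 d after treatment. Test chemicals, formulated in a non-phytotoxic solvent mixture with surfactant, were applied either as a preemergence directed soil spray on seeded soil or postemergence to one- to two-leaf plants 2 to 10 cm tall.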

[6] = test system: corn (Zea mays); assay: Test A postemergence; details: Zea mays, post-emergence, 240 h, Postemergence
How it was run: as §2

[7] = test system: wheat (Triticum aestivum); assay: Test A postemergence; details: Triticum aestivum, post-emergence, 240 h, Postemergence
How it was run: as §2

[8] = test system: giant foxtail (Setaria faberii); assay: Test A postemergence; details: Setaria faberi, post-emergence, 240 h, Postemergence
How it was run: as §2

[9] = test system: ragweed (common ragweed, Ambrosia elatior); assay: Test A postemergence; details: Ambrosia artemisiifolia, post-emergence, 240 h, Postemergence
How it was run: as §2

[10] = test system: ryegrass, Italian (Italian ryegrass, Lolium multiflorum); assay: Test A postemergence; details: Lolium multiflorum, post-emergence, 240 h, Postemergence
How it was run: as §2

[11] = test system: Galium (catchweed bedstraw, Galium aparine); assay: Test A postemergence; details: Galium, post-emergence, 240 h, Postemergence
How it was run: as §2

[12] = test system: barnyardgrass (Echinochloa crus-galli); assay: Test A postemergence; details: Echinochloa crus-galli, post-emergence, 240 h, Postemergence
How it was run: as §2

[13] = test system: blackgrass (Alopecurus myosuroides); assay: Test A postemergence; details: Alopecurus myosuroides, post-emergence, 240 h, Postemergence
How it was run: as §2

CN1CC(c2cccc(OCC=C(Cl)Cl)c2)C(C(=O)Nc2cccc(F)c2F)C1=O (stereo not shown) [Compound 1303]
pest or weed control at 250 g/ha [1]: 0%
pest or weed control at 250 g/ha [2]: 0%
pest or weed control at 250 g/ha [3]: 0%
pest or weed control at 250 g/ha [4]: 0%
pest or weed control at 125 g/ha ([5]; 125 g ai/ha, visual rating about 10 d after treatment, read-out: Pigweed plant response rating (0 to 100 scale)): 0%
pest or weed control at 500 g/ha ([5]; 500 g ai/ha, visual injury, 0 to 100 scale (0 no effect, 100 complete control), approx. 10 d, read-out: Plant response rating, Pigweed): 0%
plant injury at 125 g/ha ([6]; 125 g ai/ha, visual rating about 10 d after treatment, read-out: Corn plant response rating (0 to 100 scale)): 0%
Corn plant response rating (crop injury, 0 = no effect, 100 = complete kill) at 500 g/ha ([6]; 500 g ai/ha, visual injury, 0 to 100 scale (0 no effect, 100 complete control), approx. 10 d): 0%
plant injury at 125 g/ha ([7]; 125 g ai/ha, visual rating about 10 d after treatment, read-out: Wheat plant response rating (0 to 100 scale)): 0%
plant injury at 500 g/ha ([7]; 500 g ai/ha, visual injury, 0 to 100 scale (0 no effect, 100 complete control), approx. 10 d, read-out: Plant response rating, Wheat): 0%
pest or weed control at 125 g/ha ([8]; 125 g ai/ha, visual rating about 10 d after treatment, read-out: Foxtail, Giant plant response rating (0 to 100 scale)): 40%
pest or weed control at 500 g/ha ([8]; 500 g ai/ha, visual injury, 0 to 100 scale (0 no effect, 100 complete control), approx. 10 d, read-out: Plant response rating, Foxtail, Giant): 60%
pest or weed control at 125 g/ha ([9]; 125 g ai/ha, visual rating about 10 d after treatment, read-out: Ragweed plant response rating (0 to 100 scale)): 0%
pest or weed control at 500 g/ha ([9]; 500 g ai/ha, visual injury, 0 to 100 scale (0 no effect, 100 complete control), approx. 10 d, read-out: Plant response rating, Ragweed): 0%
pest or weed control at 125 g/ha ([10]; 125 g ai/ha, visual rating about 10 d after treatment, read-out: Ryegrass, Italian plant response rating (0 to 100 scale)): 0%
pest or weed control at 500 g/ha ([10]; 500 g ai/ha, visual injury, 0 to 100 scale (0 no effect, 100 complete control), approx. 10 d, read-out: Plant response rating, Ryegrass, Italian): 0%
pest or weed control at 125 g/ha ([11]; 125 g ai/ha, visual rating about 10 d after treatment, read-out: Galium plant response rating (0 to 100 scale)): 0%
pest or weed control at 500 g/ha ([11]; 500 g ai/ha, visual injury, 0 to 100 scale (0 no effect, 100 complete control), approx. 10 d, read-out: Plant response rating, Galium): 0%
pest or weed control at 125 g/ha ([12]; 125 g ai/ha, visual rating about 10 d after treatment, read-out: Barnyardgrass plant response rating (0 to 100 scale, 0 no effect, 100 complete control)): 0%
pest or weed control at 500 g/ha ([12]; 500 g ai/ha, visual injury, 0 to 100 scale (0 no effect, 100 complete control), approx. 10 d, read-out: Plant response rating, Barnyardgrass): 30%
pest or weed control at 125 g/ha ([13]; 125 g ai/ha, visual rating about 10 d after treatment, read-out: Blackgrass plant response rating (0 to 100 scale)): 0%
pest or weed control at 500 g/ha ([13]; 500 g ai/ha, visual injury, 0 to 100 scale (0 no effect, 100 complete control), approx. 10 d, read-out: Plant response rating, Blackgrass): 0%
